Reference: patent US20040022782A1, “Cyclitol containing carbohydrates from human tissue which regulate glycogen metabolism” (Rodaris Pharmaceuticals Limited, priority 1996, published 2004)

Tests used:
[1] = molecular target: T1, pyruvate dehydrogenase phosphatase isolated from bovine heart (Bos taurus, UniProt P35816); assay: Stimulation of pyruvate dehydrogenase (PDH) phosphatase; format: biochemical
T1 construct: pyruvate dehydrogenase phosphatase isolated from bovine heart; from tissue; host or cells: bovine heart
T1 sequence (P35816 72-538): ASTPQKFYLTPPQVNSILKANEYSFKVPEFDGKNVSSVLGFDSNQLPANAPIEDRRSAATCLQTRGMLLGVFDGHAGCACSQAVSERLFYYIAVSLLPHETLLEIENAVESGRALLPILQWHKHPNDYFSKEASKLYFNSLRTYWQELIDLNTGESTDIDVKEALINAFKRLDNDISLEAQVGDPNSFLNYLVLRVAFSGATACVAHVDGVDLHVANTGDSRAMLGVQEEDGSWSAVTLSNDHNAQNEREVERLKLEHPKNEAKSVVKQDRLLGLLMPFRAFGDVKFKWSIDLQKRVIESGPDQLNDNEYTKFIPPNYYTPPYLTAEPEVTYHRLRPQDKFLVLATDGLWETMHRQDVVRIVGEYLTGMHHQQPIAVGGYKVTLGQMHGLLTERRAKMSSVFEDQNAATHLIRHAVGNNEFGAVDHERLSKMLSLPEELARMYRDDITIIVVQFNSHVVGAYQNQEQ
T1 sequence (O46504 32-878 partner limits assumed): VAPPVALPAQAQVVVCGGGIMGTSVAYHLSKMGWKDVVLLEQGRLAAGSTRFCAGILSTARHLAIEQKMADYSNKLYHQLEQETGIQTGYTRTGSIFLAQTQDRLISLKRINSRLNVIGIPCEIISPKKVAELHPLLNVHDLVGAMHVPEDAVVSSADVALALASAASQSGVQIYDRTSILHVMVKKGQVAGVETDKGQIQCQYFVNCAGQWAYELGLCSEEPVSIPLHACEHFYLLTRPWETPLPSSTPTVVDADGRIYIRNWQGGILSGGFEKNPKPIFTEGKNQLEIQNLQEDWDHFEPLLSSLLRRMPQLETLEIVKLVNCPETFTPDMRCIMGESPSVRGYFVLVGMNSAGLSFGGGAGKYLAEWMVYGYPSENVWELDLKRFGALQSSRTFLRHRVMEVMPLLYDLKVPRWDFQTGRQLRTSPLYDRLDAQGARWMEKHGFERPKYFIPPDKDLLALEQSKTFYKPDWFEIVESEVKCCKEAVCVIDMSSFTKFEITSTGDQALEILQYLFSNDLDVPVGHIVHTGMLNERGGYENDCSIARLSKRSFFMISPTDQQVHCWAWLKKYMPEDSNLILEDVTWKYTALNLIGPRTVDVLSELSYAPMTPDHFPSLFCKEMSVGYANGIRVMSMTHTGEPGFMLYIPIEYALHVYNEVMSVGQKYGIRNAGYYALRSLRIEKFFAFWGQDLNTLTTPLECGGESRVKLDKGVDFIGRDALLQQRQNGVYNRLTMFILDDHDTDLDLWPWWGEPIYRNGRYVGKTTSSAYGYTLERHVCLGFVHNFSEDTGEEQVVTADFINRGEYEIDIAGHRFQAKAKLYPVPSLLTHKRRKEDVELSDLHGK
Experimental: Pyruvate dehydrogenase complex (PDC) and the PDH phosphatase were prepared and stored at −80° C. until use. The assay for both PDH phosphatases, in the presence of absence of insulin mediator, was based upon the initial rate of activation of inactivated, phosphorylated PDH complex. […] A two stage assay was used to quantitate the phosphatase activity. A sample of inactivated PDC (50 μL) was preincubated at 30° C. with 1 mg/mL fat-free BSA, 10 mM MgCl2, 0.1 mM CaCl2 and […] DTT in 20 mM potassium phosphate buffer at pH 7.0 (total volume 250 μL) for three minutes. At this time, 10 μL of the PDH phosphatase and 10 μL of IPG were added and the incubation continued for a further 2 min. At the end of this time, 200 μL of the mix was removed and added to 100 μL of 300 mM NaF. The activated PDH was determined at the second stage photometrically by measuring the rate of production of NADH. One hundred microliters of the stopped reaction were added to 1 mL of reaction mixture containing 50 mM potassium phosphate buffer at pH 8.0, 2.5 mM β-NAD^+, 0.2 mM TPP, 0.13 mM coenzyme A, 0.32 mM DTT and 2 mM sodium pyruvate. The production of NADH was followed at 340 nm for 5 min.
Three samples of liver P-type used. All were suspended on day of use at the rate of 1 g liver in […] water. All three preparations were tested before and after treatment with dithizone, while the one preparation was also treated with Mn after dithizone to attempt to reactivate it. The reactivation procedure was to preincubate a de-metallized sample with 2.7 mM Mn for 15 min before it was added to the inactivated PDH mix.
The P-1 sample used here was the same as that used in previous experiment although a second tube of that composite sample. The dithizone treated sample was the same as that used previously. For reactivation, the de-medalist sample was pre-incubated for 15 mins with either 2.7 mM Mn, 1.8 mM Zn or 2.7 mM Mn-1.8 mM Zn. All samples tested on normal assay system using 10 μl P′ase and 5 ul of sample.

[2] = tested on: Glycogen synthase; assay: Glycogen synthase activity in rat fat cells; format: cell-based; settings: 5 min incubation, 20 μl insulin (25 mU/ml) or 10 μl placenta IPG
Experimental: Glycogen synthase activity was assayed as follows. Fat cells were prepared from epididymal adipose tissue using 140-150 g rats (Wistar strain). Fat pads from 3 rats were cut into small pieces and incubated in 8 ml of Krebs ringer bicarbonate containing 2% albumin plus 24 mg of collagenase for 25 minutes at 37° C. The isolated cells were filtered and washed in 3×10 ml Krebs ringer phosphate medium containing 30 mg/ml of bovine serum albumin (Fraction v, Sigma), the pH was adjusted to 7.4 with NaOH after addition of albumin. The washed cells were also resuspended in Krebs ringer phosphate (10 ml of medium/g of original tissue).
For measurement of enzyme activities, three incubation vessels were set up, each contained 5 ml cells. There were no additions to the first, the second contained 20 μl insulin (25 mU/ml) and the third 10 μl placenta IPG. […]
The reaction was stopped with 0.5 ml cold buffer (100 mM KF/10 mM EDTA/1 mM benzamidine (4), pH 7.0) and the cells homogenized and transferred to Eppendorf tubes. These were spun at 10,000 g for 15 min and the middle layer collected for enzyme assay all tubes were set up in duplicate and measured in the presence of 0.01 mM glucose 6-phosphate except the maximally activated glycogen synthase tube which contained 7.2 mM glucose 6-phosphate. […] Glycogen synthase activity is expressed as a percentage of the total synthase activity (G6P maximum).

[3] = tested on: rat liver; assay: IPG release in rat liver following infusion with insulin; format: in vivo; settings: 2 minutes after insulin infusion
[4] = reactivation experiment, 10 μl P'ase and 5 ul of sample, 2.7 mM Mn, 1.8 mM Zn, Treated = dithizone

Compound	effect on P'ase activity ([1]; 10^−4M Mn (assay no: 3))	PDH phosphatase (activity) ([1]; +Mg2+ + Ca2+)	PDH phosphatase (activity) ([1]; +Mg2+, no Ca2+)	Units/g ([1]; dithizone experiment, Vol used 5 μl, Treated = dithizone, Mn 2.7 mM) [Units/g]	% stimulation ([1]; dithizone experiment, Vol used 5 μl, liver P-type 1 g liver in 10 μl water, Treated = dithizone, Mn 2.7 mM) [%]	% stimulation [1, 4]	Stimulation as % of G6P Maximum [2] [%]	increase in PDH phosphatase stimulating activity of rat liver [3]
[Mn+2] [Mn, manganese]	no effect	Δ 0.680 OD/min (2)	Δ 0.000 OD/min (6)	0	−11	+12%	–	–
insulin	–	–	–	–	–	–	6.54	two-fold increase in activity
[Zn+2] [Zn]	–	–	–	–	–	+122%	–	–
